Consider two molecules from patent US4165379A, “N-acetyl thienamycin” (Merck & Co., Inc., priority 1977, dated 1979).

Read-outs that look alike come from different tables or passages of the source.

Series [1] concerns Staphylococcus aureus ATCC 6538P. As to the kind of experiment: Disc-diffusion potency in units/mg relative to cephalothin. In kind it is cell-based. As to the method:
Plates containing Staphylococcus aureus ATCC 6538P are prepared as follows:
An overnight growth of the assay organism, Staphylococcus aureus ATCC 6538P, in nutrient broth plus 0.2% yeast extract is diluted with nutrient broth plus 0.2% yeast extract to a suspension having 55% transmittance at a wavelength of 660 nm. This suspension is added to Difco nutrient agar supplemented with 2.0 g./l. Difco yeast extract at 47° C. to 48° C., to make a composition containing 33.2 ml. of the suspension per liter of agar. Five ml. of this suspension is poured into petri dishes of 85 mm. diameter, and these plates are chilled and held at 4° C. until used (5 day maximum).
Samples of antibiotic to be assayed are diluted to an appropriate concentration in phosphate buffer at pH 7. Filter paper discs, 1/4 or 1/2 inch diameter, are dipped into the test solution and placed on the surface of the assay plate. The plates are incubated at 37° C. overnight, and the zone of inhibition is measured as mm. diameter. The zone of inhibition measured in mm. determines relative potencies.
The 48 l. concentrate is adjusted to pH 7.3 and adsorbed on 76 l. of Dowex 1×2, 50 to 100 mesh, chloride cycle resin at 7.6 l./min. The resin is eluted with deionized water at the same rate. Four fractions are collected, two of 48 l., one of 70 l. and one of 48 l. The fractions are adjusted to pH 7 as collected. Assays indicate that 68% of the starting bioactivity is in the 70 l. fraction. This fraction is concentrated to 18 l. at pH 7.0 and filtered using a 0.45 micron Millipore Filter.
(In general: Agar diffusion results depend on both activity and mobility in agar.)

Series [2] concerns Escherichia coli. As to the kind of experiment: Bauer-Kirby disc diffusion antibiotic spectrum (Table 3). In kind it is cell-based. Conditions: read-out: diameter of the zone of inhibition; for zone of inhibition at 10.35 µg/disc: Escherichia coli, 10.35 μg/disc, prepared by acetylating thienamycin; for zone of inhibition at 9.85 µg/disc: 9.85 μg/disc, prepared by fermenting Streptomyces cattleya. The text has this:
(§1) The test employs the Bauer-Kirby disc diffusion method modified only in respect to the 2 mm. agar depth employed here.

Series [3] concerns Staphylococcus aureus. The description is as above. It counts as cell-based. The settings on record: for diameter of the zone of inhibition: MB2314, resistance P (penicillins).
From the text: as §1

For series [4], the system named is Enterobacter cloacae. Described as above. In kind it is cell-based. The settings on record: read-out: diameter of the zone of inhibition; for zone of inhibition at 10.35 µg/disc: Enterobacter cloacae, 10.35 μg/disc, prepared by acetylating thienamycin; for zone of inhibition at 9.85 µg/disc: 9.85 μg/disc, prepared by fermenting Streptomyces cattleya.
From the text: as §1

Series [5] relates to Serratia. Described as above. Conditions: MB2840, resistance P,C (penicillins, cephalosporins), read-out: diameter of the zone of inhibition. It counts as cell-based.
From the text: as §1

The test system of series [6] is Klebsiella pneumoniae. The series is described as above. In kind it is cell-based. The settings on record: read-out: diameter of the zone of inhibition; for zone of inhibition at 10.35 µg/disc: Klebsiella pneumoniae, 10.35 μg/disc, prepared by acetylating thienamycin; for zone of inhibition at 9.85 µg/disc: 9.85 μg/disc, prepared by fermenting Streptomyces cattleya.
From the text: as §1

The test system of series [7] is Bacillus subtilis. The description is as above. Conditions: MB 964, ATCC 6633, read-out: diameter of the zone of inhibition. In kind it is cell-based.
From the text: as §1

The test system of series [8] is Proteus morganii. Described as above. It counts as cell-based. The settings on record: MB2833, resistance P,C (penicillins, cephalosporins), read-out: diameter of the zone of inhibition.
From the text: as §1

The test system of series [9] is Proteus mirabilis. Described as above. The settings on record: MB2830, resistance P,C (penicillins, cephalosporins), read-out: diameter of the zone of inhibition. It counts as cell-based.
From the text: as §1

Series [10] has as its system Pseudomonas aeruginosa. The series is described as above. In kind it is cell-based. Conditions: read-out: diameter of the zone of inhibition; for zone of inhibition at 9.85 µg/disc: 9.85 μg/disc, prepared by fermenting Streptomyces cattleya; for zone of inhibition at 10.35 µg/disc: Pseudomonas aeruginosa, 10.35 μg/disc, prepared by acetylating thienamycin.
From the text: as §1

Series [11] relates to gram-negative and gram-positive organisms. Nature of the series: In vivo activity against infections in mice. The settings on record: mouse. As for the experimental part:
(§2) In determining the in vivo activity, N-acetyl thienamycin is dissolved in and diluted with 0.01 M sodium phosphate, pH 7.0, to provide five fourfold concentrations of drug for testing. Female white Swiss mice, averaging about 21 g. in weight, were infected intraperitoneally with the test organism suspended in broth. The numbers of organisms injected were determined by standard plate-count techniques. At the time of infection, and again 6 hours later, certain of the mice were treated intraperitoneally with the antibiotic. Five mice were used for each concentration of drug tested. Controls of five mice for each of several dilutions of the infecting culture were included in each test in order to calculate the numbers of organisms that were lethal to 50% of the infected, untreated mice (LD50). This calculation was made using survival data of the seventh day after infection, at which time the amount of drug that should protect 50% of the infected mice (ED50) also was calculated.

Series [12] deals with Staph aureus 2949. Nature of the series: Efficacy studies (mice), intraperitoneal infection (Table 4). It counts as in vivo, CD-1 female mice infected with Staph aureus. Conditions: Staphylococcus aureus, 2949, ip, 168 h; i.p. × 2, at time of infection and again 6 hours later; challenge 13 LD50; survival seventh day after infection. As for the experimental part: as §2
The nature of series [13]: pKa from the λ max dependence on pH. It counts as physicochemical. Conditions: read-out: pKa for a COOH group.
Series [14] has as its system Vibrio percolans ATCC 8461. Nature of the series: Disc-diffusion bioassay on ATCC 8461 plates. Conditions: crude sample (244 absorbance units at 298 nm); 1/2 inch disc, 0.1 ml of 1000 fold dilution; 25° C. It counts as cell-based. As to the method: Assays of antibacterial activity are run according to the following disc-diffusion method using either Vibrio percolans ATCC 8461 or Staphylococcus aureus ATCC […] as tester organism. Plates containing Vibrio percolans ATCC 8461 are prepared as follows: A lyophilized culture of Vibrio percolans ATCC 8461 is suspended in 15 ml. of a sterilized medium containing 8 g./l. of Difco Nutrient Broth and 2 g./l. of yeast extract in distilled water (hereinafter designated NBYE). The culture is incubated overnight on a rotary shaker at 28° C. This culture is used to inoculate the surface of […] containing 1.5% agar in NBYE, and the inoculated […] incubated overnight at 28° C. and then stored in a refrigerator. The refrigerated […] prepared from a single lyophilized culture are used for up to four weeks from their preparation, as follows: A loop of inoculum from the slant is dispersed in 50 ml. of NBYE contained in a 250 ml. Erlenmeyer flask. […] The plates are incubated at 37° C. overnight, and the zone of inhibition is measured as mm. diameter. The zone of inhibition measured in mm. determines relative potencies. […] The solution contains 244 absorbance units at 298 nm and a 1/2 inch assay disc containing 0.1 ml. of a 1000 fold dilution, produces a 23 mm. zone of inhibition when incubated on ATCC 8461 plates at 25° C.

Where [15] appears, read: MB2482, resistance P (penicillins).
Where [16] appears, read: MB2964, resistance P,C (penicillins, cephalosporins).
The mark [17] stands for this setting: 9.85 μg/disc, prepared by fermenting Streptomyces cattleya.
[18] abbreviates: MB2646, resistance P,C (penicillins, cephalosporins).
[19] abbreviates: MB2921, resistance P (penicillins).
[20] abbreviates: MB2922, resistance P (penicillins).
Setting [21] is: MB2824, resistance P,C (penicillins, cephalosporins).
[22] abbreviates: MB2835, resistance P,C (penicillins, cephalosporins), zone hazy.
The mark [23] stands for this setting: MB3286, resistance P,C (penicillins, cephalosporins).

With `C[C@@H](O)[C@H]1C(=O)N2C(C(=O)O)=C(SCCN)C[C@H]12` [thienamycin], the calculated potency in series [1] (23.6 mg. after second XAD-2 column) is reported as 30,140 units/mg; in series [1] (after second XAD-2 column, 3.1 fold purification), 31,000 units/mg. Besides, the average potency in series [1] (90 mg. after Bio-Gel P-2, fractions 75 through 80) is recorded as 10,000 units/mg. Moreover, the potency in series [1] (100.5 mg. after Bio-Gel P-2, fractions 75 through 79) was 8,320 units/mg; in [1] (freeze-dried product after Dowex 1×2) it was 310 units/mg.

Turning to `CC(=O)NCCSC1=C(C(=O)O)N2C(=O)C(C(C)O)C2C1` (centres unmarked) [N-Acetyl Thienamycin, N-acetyl thienamycin], the zone of inhibition at 10.35 µg/disc in series [2] (setting [15]) is 28 mm; in series [2] (MB2884) it was 31.5 mm; in series [2] (setting [16]), 29.5 mm; in series [3] (Staphylococcus aureus, MB2985, 10.35 μg/disc, prepared by acetylating thienamycin, read-out: diameter of the zone of inhibition), 37 mm; in series [4] (setting [18]) it was 27 mm; in [4] (MB2647), 29 mm. The zone of inhibition at 10.35 µg/disc in series [5] (Serratia, 10.35 μg/disc, prepared by acetylating thienamycin) is 27 mm; in series [6] (setting [19]) it was 28.5 mm; in [6] (setting [20]), 30 mm; in series [7] (Bacillus subtilis, ATCC6633, 10.35 μg/disc, prepared by acetylating thienamycin) it was 44.5 mm; in series [8] (Morganella morganii, 10.35 μg/disc, prepared by acetylating thienamycin), 25 mm; in [9] (Proteus mirabilis, 10.35 μg/disc, prepared by acetylating thienamycin), 26 mm. In addition, the zone of inhibition at 10.35 µg/disc is 24 mm in [10] (setting [21]), 11 mm in series [10] (setting [22]) and 0 mm in [10] (setting [23]). The zone of inhibition at 9.85 µg/disc in series [2] (setting [15]) turned out to be 28 mm; in [2] (MB2884), 31.5 mm; in series [2] (setting [16]), 28.5 mm; in series [3] (MB2985, 9.85 μg/disc, prepared by fermenting Streptomyces cattleya, read-out: diameter of the zone of inhibition), 37 mm; in series [4] (setting [18]), 26.5 mm; in series [4] (MB2647) it was 29 mm. Besides, the zone of inhibition at 9.85 µg/disc in [5] (setting [17]) was found to be 27 mm; in series [6] (setting [19]) it was 28 mm; in series [6] (setting [20]), 27 mm; in series [7] (setting [17]) it was 43 mm; in series [8] (setting [17]), 25.5 mm; in series [9] (setting [17]), 25 mm. The zone of inhibition at 9.85 µg/disc was 23 mm in series [10] (setting [21]), 11 mm in series [10] (setting [22]) and 0 mm in [10] (setting [23]). Also, the “diameter of the zone of inhibition” value was 37 millimeters in [3] (setting [17]) and 37 millimeters in series [3] (10.35 μg/disc, prepared by acetylating thienamycin). Further, in series [11], the in vivo activity entry is “exhibits in vivo activity against gram-negative and gram-positive organisms”. In series [12], the ED50 worked out at 0.05 mg/kg. In addition, the pKa in series [13] is 3.3 ± 0.1. This molecule yielded a zone of inhibition in series [14] of 23 mm.

As usually defined, the zone of inhibition is the extent of the growth-free halo in a diffusion test. In general, ED50 refers to the dose that gives a 50% effect, or the effect in half of the subjects. As usually defined, the pKa is the pH at which an ionisable group is half protonated.
